The results in this text go back to ChEMBL document CHEMBL3751763, “Polyketide butenolide, diphenyl ether, and benzophenone derivatives from the fungus Aspergillus flavipes PJ03-11” (Bioorg Med Chem Lett, 2016).

One may read the IC50 as the concentration at which inhibition is half-maximal.

The nature of the experiment: Inhibition of Saccharomyces cerevisiae alpha-Glucosidase using p-nitrophenyl-alpha-D-glucopyranoside as substrate assessed as formation of para-nitrophenol preincubated for 5 mins followed by addition of substrate measured after 15 mins by microplate reader analysis.
`COC(=O)c1cc(O)cc(O)c1C(=O)c1c(O)cc(C)cc1O`: the IC50 stood at 199 nM. Turning to `C[C@@H]1O[C@@H](O[C@@H]2[C@@H](O)[C@H](O)[C@H](O[C@H]3[C@H](O)[C@@H](O)C(O)O[C@@H]3CO)O[C@H]2CO)[C@@H](O)[C@H](O)[C@H]1N[C@H]1C=C(CO)[C@@H](O)[C@H](O)[C@H]1O` (some centres undefined), the IC50 stood at 685 nM. With `COC(=O)c1cc(O)cc(OC)c1Oc1c(Cl)c(C)c(Cl)c(O)c1C(=O)O` [GEODIN HYDRATE], the IC50 is 91 nM. The same measure for `COC(=O)[C@]1(Cc2ccccc2)OC(=O)C(O)=C1c1ccccc1`: 385 nM; for `COc1cc(O)cc(C(=O)O)c1C(=O)c1c(O)c(Cl)c(C)c(Cl)c1O`: 42 nM; for `O=c1c(O)c(-c2ccc(O)c(O)c2)oc2cc(O)cc(O)c12` [QUERCETIN]: 15 nM. The same measure for `COc1cc(/C=C2\OC(=O)C(c3ccc(O)cc3)=C2O)ccc1O`: 22 nM; for `COC(=O)c1c(O)c(Cl)c(C)c(Cl)c1Oc1c(OC)cc(O)cc1C(=O)O`: 1480 nM.

As for `COC(=O)[C@]1(Cc2ccc(O)c(CC=C(C)C)c2)OC(=O)C(OC)=C1c1ccc(O)c(O)c1`, the IC50 turned out to be 16 nM. The same measure for `COC(=O)c1cc(O)cc(OC)c1Oc1c(Cl)c(C)c(Cl)c(O)c1C(=O)OC` [METYL DICHLOROASTERRATE]: 1450 nM. Take `O=C1O/C(=C\c2ccc(O)cc2)C(O)=C1c1ccc(O)cc1` [ASPULVINONE E]: the IC50 stood at 2700 nM. For `COC(=O)c1cc(O)cc(OC)c1Oc1cc(C)c(Cl)c(O)c1C(=O)O`, the 50% inhibitory concentration (IC50) was > 2000 nM. For `COC(=O)c1cc(O)cc(OC)c1Oc1cc(C)cc(O)c1C(=O)O` [ASTERRIC ACID], the IC50 was > 2000 nM.

With `COC(=O)c1cc(O)cc(OC)c1Oc1cc(C)c(Cl)c(O)c1C(=O)OC` [METHYL CHLOROASTERRATE], the 50% inhibitory concentration (IC50) is > 2000 nM. Turning to `COc1cc(/C=C2\OC(=O)C(c3ccc(O)cc3)=C2O)cc(OC)c1O`, the IC50 was 79 nM. Under `COC(=O)c1cc(O)cc(OC)c1Oc1cc(CO)cc(O)c1C(=O)O` stands > 2000 nM. Regarding `COC(=O)c1cc(O)cc(O)c1C(=O)c1c(O)c(Cl)c(C)c(Cl)c1O`, the IC50 was > 2000 nM. As for `COc1cc(O)cc(C(=O)O)c1Oc1cc(C)cc(O)c1C(=O)O`, the IC50 is > 2000 nM.

As to `COC(=O)[C@]1(Cc2ccc(O)cc2)OC(=O)C(O)=C1c1ccc(O)cc1`, the half-maximal inhibitory concentration (IC50) turned out to be 126 nM.
